Laboratory results taken from patent US11433087B2, “Anti-tumor compound with high CD169 affinity, method thereof, and use thereof” (Xiamen Nuokangde Biological Technology Co., Ltd., priority 2017, dated 2022).

Columns and labels:
B16F10 cells [1] = experiment: Tumor metastasis analysis model in mice; format: in vivo, B6 mice (C57BL/6); conditions: B16F10 injected from tail veins in C57BL/6 mice; 200 μL, 100 μmol, tail vein every two days, 15 days; versus 100 μmol natural sialic acid (Neu5Ac); FIG. 14
Description: Culturing B16F10 cells in a 10 cm cell culture dish to a density of 80%, digesting with 2 mL tyrisin for 90 seconds, neutralizing with 2 mL medium, centrifuging under 300 g for 3 minutes, rinsing with PBS repeatedly, centrifuging once to remove any residual medium, and adding PBS to resuspend and count an amount of the B16F10 cells.
Injecting 1 million of the B16F10 cells into B6 mice (C57BL/6) from tail veins for preparing a tumor metastasis analysis model. Then, injecting 200 μL of an aqueous solution comprising the 100 μmol of the anti-tumor compound with high CD169 affinity of the present disclosure every two days from tail veins as an experimental group 3, and injecting water solution with the same volume comprising 100 μmol of natural sialic acid (Neu5Ac) as a control group 3. After 15 days, removing hair from tumor areas of the B6 mice and taking pictures. Then, taking out tumors from the B6 mice and taking pictures for analysis. An ordinate position of a black solid circle indicates a number of the tumors transferred to lungs of a mouse of the experimental group 3. An ordinate position of one black solid square indicates a number of the tumors transferred to lungs of a mouse of the control group 3. It can be seen from FIG. 14 that the number of the tumors transferred to the lungs in the experimental group 3 is far lower than that in the control group 3. […]

B16F10 cells [2] = experiment: Phagocytic effects of macrophages (BMDM) on tumor cells, lactate dehydrogenase cytotoxicity test kit; format: cell-based, mouse; conditions: BMDM and B16F10 cells 5:1; compared with control group medium added with Neu5Ac; FIG. 5
Description: Taking out bone marrow of 10 week old mice, adding with a solution of potassium ammonium chloride (ACK), and then culturing cells of the bone marrow in an Iscove's modified dulbecco medium (IMDM) comprising 10% (volume ratio) fetal bovine serum (FBS) and 10 ng/mL macrophage […] stimulating factor to obtain bone marrow derived macrophages (BMDM). Culturing BMDM and B16F10 cells of a ratio of 5:1 respectively in an experimental group medium and a control group medium. Adding TCC-Neu5Ac to the experimental group medium, adding Neu5Ac of the same volume to the control group medium, detecting by Lactate dehydrogenase cytotoxicity test kit, selecting a 490 nm absorption peak in a microplate reader, and converting to phagocytic killing efficiency.

B16F10 cells [3] = experiment: Anti-tumor effects in tumor-bearing mice orally administrated with the compound; format: in vivo, B6 mice (C57BL/6); conditions: subcutaneous B16F10 in C57BL/6 mice; oral 200 μL aqueous solution, 100 μmol, daily, 15 days; versus natural sialic acid; FIG. 10-13
Description: Culturing B16F10 cells in a 10 cm cell culture dish to a density of 80%, digesting with 2 mL tyrisin for 90 seconds, neutralizing with 2 mL medium, centrifuging under 300 g for 3 minutes, rinsing with PBS repeatedly, centrifuging once to remove any residual medium, adding PBS to resuspend and count an amount of the B16F10 cells, and injecting subcutaneously 1 million of the B16F10 cells into the of B6 mice (C57BL/6) for tumor planting;
Feeding 200 μL of an aqueous solution comprising the 100 μmol of the anti-tumor compound with high CD169 affinity of the present disclosure daily as an experimental group 2;
Feeding water solution with the same volume comprising natural sialic acid as a control group 2; and
After 15 days, removing hair from tumor areas of the B6 mice, taking pictures, taking out tumors from the B6 mice, and taking pictures for analysis.

B16F10 cells [4] = experiment: Anti-tumor effects in tumor-bearing mice injected with the compound; format: in vivo, mice B6 (C57BL/6); conditions: subcutaneous B16F10 in C57BL/6 mice; tail vein injection of 100 mL PBS, 100 μmol, every two days, 15 days; versus 100 μmol natural sialic acid; FIG. 6-9
Description: Culturing B16F10 cells in a 10 cm cell culture dish to a density of 80%;
Digesting with 2 mL tyrisin for 90 seconds, neutralizing with 2 mL medium, centrifuging under 300 g for 3 minutes, rinsing with PBS repeatedly, centrifuging once to remove any remaining medium, and adding PBS to resuspend and count an amount of the B16F10 cells;
Injecting subcutaneously 1 million of the B16F10 cells into mice B6 (C57BL/6) for tumor planting, and then injecting […] PBS comprising the anti-tumor compound of the present disclosure with a concentration of 100 μmol from a tail vein of mice every two days as an experimental group 1;
Injecting PBS of the same volume comprising 100 μmol natural sialic acid as a control group 1, and the other conditions of the control group 1 are the same as the experimental group 1; and
After 15 days, removing hair from tumor areas of the mice, taking pictures (as shown in FIG. 6 and FIG. 7), taking out tumors from the mice, and taking pictures for analysis.

[5] = tested on: human malignant glioma cells (U87); experiment: Toxicity in cells (counting dead cells, cell survival rate); format: cell-based; conditions: U87, different concentrations 0-100 μmol, 24 hours; FIG. 4
Description: Culturing human malignant glioma cells (U87) in the constant temperature incubator containing 5% CO2 at 37° C., and a seventh medium of the human malignant glioma cells is DMEM containing 10% fetal bovine serum;
Transferring the human malignant glioma cells to a confocal cell culture dish, culturing to a density of 50%, removing the seventh medium, adding an eighth medium comprising TCC-Neu5Ac of different concentrations from 0 to 100 μmol (100 μM), and further culturing for 24 hours; and
Removing the eighth medium comprising TCC-Neu5Ac, washing carefully with PBS for three times, adding a ninth medium, and counting dead cells of the human malignant glioma cells.
Counting results of the dead cells are shown in FIG. 4, wherein abscissa represents different concentrations of TCC Neu5Ac in the eight medium, and ordinate represents a cell survival rate of the human malignant glioma cells. […] Therefore, the anti-tumor compound with high CD169 affinity of the present disclosure has extremely low toxicity in the cells and has potential ability for human tumor treatment.

For `CC(=O)N[C@@H]1C(O)C[C@](O)(C(=O)O)OC1C(O)C(O)CNC(=O)c1cc2c(s1)-c1ccccc1OC2` (some centres unmarked) [TCC-Neu5Ac, 9-benzopyranothiophene-n-acetylneuraminic acid monosaccharide], the “number of the tumors transferred to the lungs” value (B16F10 cells [1]) was “far lower”, the “killing rate of phagocytes to tumors” value (B16F10 cells [2]) was “significantly higher” and the “sizes of the tumors” value (B16F10 cells [3]) was “significantly smaller”. For the same compound, the “sizes of the tumors” value (B16F10 cells [4]) was “significantly smaller” and the “cell survival rate of the human malignant glioma cells” value [5] was “does not differ much”.
